These results are taken from patent US20260216156A1, “METHODS AND COMPOSITIONS FOR THE TREATMENT OF HEARING DISORDERS” (Gateway Biotechnology, Inc., priority 2023, published 2026).

Where two headings read alike, the source gives them in different places.

For series [1] the following is noted: after feeding to rats; cited from earlier work.
The conditions of series [2]: anesthetized rats, cited from earlier work.
Series [3] is described as follows: Microemulsion formulation: NMDP solubility and droplet size. Type of series: physicochemical. Conditions: aqueous with cosolvent or surfactant or cyclodextrin, 8% Labrafil M 1944CS, 30% Cremophor RH 40/ethanol (3:1) and water.
Series [4] is described as follows: Ciliotoxicity of microemulsion formulation. The settings on record: microemulsion: 8% Labrafil M 1944CS, 30% Cremophor RH 40/ethanol (3:1) and water.
Series [5] can be described thus: Pharmacokinetics after intranasal administration, blood samples, NMDP by HPLC. It counts as in vivo.
In series [6] the test system is mice suffering from noise induced tinnitus. The series can be described thus: Sound-based avoidance detection (SBAD), No-Go trials. Type of series: in vivo. Conditions: for No-Go trial correct rate: tinnitus mice. As to the method:
Using a shuttle box divided into two compartments, mice were trained to cross from side to side with sound cues in the “Go” trials and remain still in the absence of sound in the “No-Go” trials for 15 days. […] The sound cues were randomly played as white noise or narrow-band noise at 5, 10, 16, 20, and 32 kHz with sound intensities randomly at 75, 80, or 85 dB. […] Additionally, a hurdle was added on training 11 to reinforce the training. After the 15th training day, mice were tested for 3 days to obtain a baseline score to be compared after noise exposure, as well as retraining for 3 days. Following the successful completion of training so that mice reached a high percentage of success in the trials, the mice were exposed to a noise-induced trauma for tinnitus. To ensure that the mice still have their hearing, one ear was protected with an ear plug, while the other ear was exposed to the noise. The mice were placed in a sound booth where they were exposed to 120 dB broadband noise at 4-25 kHz for 2-4 hours. Following the noise exposure, the mice were housed for one month, and then tested to see if they have developed tinnitus. In these testing periods, the mice were tested for three days in the shuttle boxes, where they underwent the Go and No-Go trials, however in the No-Go trials the mice were not shocked, as it is expected that mice with tinnitus would cross compartments in the absence of a sound cue. The mice were continued to be shocked in the Go trials in order to ensure that they have retained their hearing and can hear the sound cues. […] To insure there is a significant difference in the No-Go trial scores, chi-square tests were completed comparing the post-noise exposure tests to the baseline tests. However, if tinnitus is not present in the mice, tests were done after waiting one more month, and another if needed. Mice received dosages of NMDP initially via intraperitoneal injection (i.p.). The Go and No-Go scores for the tests were compared using chi-square tests in Social Science Statistics. […] Following this conclusion, the mice were tested accordingly to determine if their No-Go scores could be improved by different drug doses and combinations.

For series [7] the test system is unchanged. The series can be described thus: Sound-based avoidance detection (SBAD), Go trials. It counts as in vivo. As to the method: Using a shuttle box divided into two compartments, mice were trained to cross from side to side with sound cues in the “Go” trials and remain still in the absence of sound in the “No-Go” trials for 15 days. […] The sound cues were randomly played as white noise or narrow-band noise at 5, 10, 16, 20, and 32 kHz with sound intensities randomly at 75, 80, or 85 dB. […] Additionally, a hurdle was added on training 11 to reinforce the training. After the 15th training day, mice were tested for 3 days to obtain a baseline score to be compared after noise exposure, as well as retraining for 3 days. Following the successful completion of training so that mice reached a high percentage of success in the trials, the mice were exposed to a noise-induced trauma for tinnitus. To ensure that the mice still have their hearing, one ear was protected with an ear plug, while the other ear was exposed to the noise. The mice were placed in a sound booth where they were exposed to 120 dB broadband noise at 4-25 kHz for 2-4 hours. Following the noise exposure, the mice were housed for one month, and then tested to see if they have developed tinnitus. In these testing periods, the mice were tested for three days in the shuttle boxes, where they underwent the Go and No-Go trials, however in the No-Go trials the mice were not shocked, as it is expected that mice with tinnitus would cross compartments in the absence of a sound cue. The mice were continued to be shocked in the Go trials in order to ensure that they have retained their hearing and can hear the sound cues. […] To insure there is a significant difference in the No-Go trial scores, chi-square tests were completed comparing the post-noise exposure tests to the baseline tests. However, if tinnitus is not present in the mice, tests were done after waiting one more month, and another if needed. Mice received dosages of NMDP initially via intraperitoneal injection (i.p.). The Go and No-Go scores for the tests were compared using chi-square tests in Social Science Statistics. […]

The conditions of series [8]: cited from earlier work.
For series [9] the following is noted: cited from earlier work; for Bioavailability outside of the central nervous system: humans.

On to Phaseolus vulgaris hemagglutinin, for which the oral bioavailability entry in [1] is on record as “more than 10%”.

For “human growth hormone: human growth hormone, nasal bioavailability modestly increased by N-acetyl-L-cysteine”, the nasal bioavailability in series [2] (with N-acetyl-L-cysteine) is 12.2%; in [2] (without N-acetyl-L-cysteine), 7.5%.

Take `COCCOC(=O)C1=C(C)NC(C)=C(C(=O)OC(C)C)C1c1cccc([N+](=O)[O-])c1` (centres unmarked) [NMDP, nimodipine]: the solubility in series [3] was not above 6400 µg/mL. Besides, in [4], the ciliotoxicity result is “no ciliotoxicity”. Further, the “pharmacokinetics, intranasal versus intravenous” value in series [5] (Example 1: carrier, citrate buffer, benzalkonium chloride, water, about 50 mg/mL, 50 μL per nasal cavity) is listed as “comparable to that of intravenously administered NMDP”; in [5] (Example 2: carriers, non-aqueous solvent, surfactant, about 50 mg/mL, 50 μL per nasal cavity), “comparable to that of intravenously administered NMDP”; in [5] (Example 3: mPEG350, PEG400, water, no non-ionic surfactant, about 100 mg/ml, 50 μL per nasal cavity) it was “comparable to that of intravenously administered NMDP”; in series [5] (Example 4: mPEG350, PEG400, water, ethanol, no non-ionic surfactant, about 100 mg/mL, 50 μL per nasal cavity) it was “comparable to that of intravenously administered NMDP”; in [5] (Example 7: six volunteer subjects with tinnitus, nasal spray of Example 5, 50 μL per nare, about 20 mg), “comparable to that of intravenously administered NMDP”; in series [5] (Example 8: vesicular composition (phospholipid, C2-C4 alcohols, water), about 200 mg/mL, 50 μL per nasal cavity), “comparable to that of intravenously administered NMDP”. The bioavailability in series [5] (human, plasma, inhaled or intranasal, microemulsion, single intranasal administration, 2 mg/kg, read-out: absolute bioavailability) was approximately 32%. Besides, the “time of plasma concentration peak” value in [5] (microemulsion, single intranasal administration, 2 mg/kg) came out at 1 h. Moreover, the “No-Go scores: behavioral changes” value in [6] (mice, 10, 30, and 50 mg/kg i.p.) is given as “did not cause any behavioral changes”. The “No-Go trial correct rate” value in series [6] (30 mg/kg i.p.) is on record as approximately 100 % correct; in [6] (50 mg/kg i.p.) it was approximately 100 % correct; in [6] (intranasal formulation of Example 15 F1, 0.9 mg/mouse (or 30 mg/kg)), approximately 100 % correct. In addition, the “Go trial correct rate” value in series [7] (10 mg/kg i.p.) and in series [7] (30 mg/kg i.p.) was approximately 100 % correct each time. In addition, the “Go scores: effect on ability to hear the sounds presented” value in series [7] (i.p.) was “did not have an effect”. Further, in series [8], the Water solubility was 12 µg/mL. Besides, the “water solubility (in words)” value in series [8] was “poor water solubility”. Further, the solubility in ethanol entry in series [8] (ethanol) is reported as “freely soluble”. The “share of NMDP reaching the brain” value in series [9] (due to high affinity binding of plasma proteins) is given as 5%. In addition, the “Bioavailability outside of the central nervous system” value in [9] (intravenous administration) is on record as 100%; in series [9] (oral administration, extensive first-pass metabolism), 3-30%.
